# Results published in US6984649B1, “Pyridine derivatives” (Bayer Aktiengesellschaft, priority 2000, dated 2006).
# Counter-ions that a name gives are not always drawn.
# Target: T1, human IKK-β (Homo sapiens, UniProt O14920)
# T1 construct: A cDNA fragment encoding human IKK-β open reading frame was generated by PCR; His tag (from pcDNA3.1/His C); made in house; host or cells: Sf21 insect cells (baculovirus); substrate made in E. coli
# T1 sequence (O14920 1-756): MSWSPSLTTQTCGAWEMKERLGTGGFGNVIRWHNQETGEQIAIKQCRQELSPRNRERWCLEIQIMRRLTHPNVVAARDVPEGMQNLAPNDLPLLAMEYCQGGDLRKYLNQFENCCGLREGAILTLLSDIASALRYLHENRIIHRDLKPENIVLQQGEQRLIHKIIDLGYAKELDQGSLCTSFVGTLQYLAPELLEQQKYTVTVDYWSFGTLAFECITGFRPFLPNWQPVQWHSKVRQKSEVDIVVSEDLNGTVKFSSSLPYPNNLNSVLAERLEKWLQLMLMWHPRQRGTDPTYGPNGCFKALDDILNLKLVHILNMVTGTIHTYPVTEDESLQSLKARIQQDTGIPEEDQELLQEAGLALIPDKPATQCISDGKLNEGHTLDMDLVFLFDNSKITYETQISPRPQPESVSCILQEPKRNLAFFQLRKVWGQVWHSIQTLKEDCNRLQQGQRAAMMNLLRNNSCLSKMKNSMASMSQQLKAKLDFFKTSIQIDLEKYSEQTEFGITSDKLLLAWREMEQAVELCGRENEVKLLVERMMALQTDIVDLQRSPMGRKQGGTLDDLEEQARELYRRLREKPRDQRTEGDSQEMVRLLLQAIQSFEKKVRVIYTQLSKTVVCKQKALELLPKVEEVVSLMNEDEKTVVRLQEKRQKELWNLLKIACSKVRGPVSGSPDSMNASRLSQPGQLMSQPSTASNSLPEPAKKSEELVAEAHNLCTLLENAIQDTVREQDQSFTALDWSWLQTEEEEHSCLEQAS
# Test: IKK-β kinase inhibitory assay
# Type: biochemical
# Details: compounds as yielded by solid phase synthesis, purity about 40 to 90%, read-out: In vitro activity grade (In vitro IC50)
# Summary of the method: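 Radiometric read-out: streptavidin capture of 33P-labelled bio-GST-IκBα(1-54), 0.2 μM, after a 2 h room-temperature reaction started with ATP/[γ-33P]ATP. Enzyme was recombinant His-tagged human IKK-β expressed in Sf21 insect cells, used at 0.6 μg/ml in Tris-HCl pH 7.6/MgCl2 kinase buffer. Compounds added in 2.5% DMSO.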
row,SMILES,IC50
1,"N#Cc1c(C2=CCCNC2)cc(-c2ccccc2O)nc1N [Example 1-9, 2′-amino-6′-(2-hydroxyphenyl)-1,2,5,6-tetrahydro-3,4′-bipyridine-3′-carbonitrile hydrochloride]",< 500 nM
2,"NCCNc1cc(-c2c(O)cccc2OCC2CC2)nc2c1COC(=O)N2 [Example 35-1, 5-[(2-aminoethyl)amino]-7-[2-(cyclopropylmethoxy)-6-hydroxyphenyl]-1,4-dihydro-2H-pyrido[2,3-d][1,3]oxazin-2-one hydrochloride]",< 500 nM
3,"Nc1nc(-c2ccccc2O)cc2c1CNC2Cc1ccccc1 (stereo in doubt) [Example 20-3, 2-[(1S)-4-amino-1-benzyl-2,3-dihydro-1H-pyrrolo[3,4-c]pyridin-6-yl]phenol hydrochloride]",< 500 nM
4,"O=C1Nc2nc(-c3ccccc3O)cc(C3CCCNC3)c2CO1 (stereo not drawn) [Example 18-2, 7-(2-hydroxyphenyl)-5-(3-piperidinyl)-1,4-dihydro-2H-pyrido[2,3-d][1,3]oxazin-2-one hydrochloride]",< 500 nM
5,O=C1Nc2nc(-c3ccccc3O)cc(C3=CCCNC3)c2CO1 [Example 18-6],< 500 nM
6,"Nc1nc(-c2ccccc2O)cc2c1C(=O)N1CCCC2C1 (stereo not drawn) [Example 8-1, 6-amino-4-(2-hydroxy-phenyl)-5,9-diaza-tricyclo[7.3.1.0^2,7]trideca-2(7),3,5-trien-8-one]",500 to 2000 nM
7,"Oc1cccc(OCC2CC2)c1-c1cc(C2CCCNC2)c2c(n1)NCOC2 (stereo not drawn) [Example 17-1, 3-(cyclopropylmethoxy)-2-[5-(3-piperidinyl)-1,4-dihydro-2H-pyrido[2,3-d][1,3]oxazin-7-yl]-phenol hydrochloride]",< 500 nM
8,"CC1OC(=O)Nc2nc(-c3ccccc3O)cc(C3CCCNC3)c21 (stereo not drawn) [Example 18-3, hydrochloride]",500 to 2000 nM
9,"Nc1nc(-c2ccccc2O)cc(C2CCCNC2)c1C(O)c1ccccc1 (stereo not drawn) [Example 15-2, 2-[6-amino-5-[hydroxy(phenyl)methyl]-4-(3-piperidinyl)-2-pyridinyl]phenol hydrochloride]",< 500 nM
10,"CCCNC(=O)c1cc2c(C3CCCNC3)cc(-c3c(O)cccc3OCC3CC3)nc2[nH]c1=O (stereo not drawn) [Example 31-1, 7-[2-(cyclopropylmethoxy)-6-hydroxyphenyl]-2-oxo-5-(3-pipedinyl)-N-propyl-1,2-dihydro-1,8-naphthyridine-3-carboxamide]",< 500 nM
11,"COCc1c(C2CCCNC2)cc(-c2ccccc2O)nc1N (stereo not drawn) [Example 13-1, 2-[6-amino-5-(methoxymethyl)-4-(3-piperidinyl)-2-pyridinyl]phenol hydrochloride]",< 500 nM
12,"CC1(c2cc(-c3ccccc3O)nc(N)c2C#N)CCCNC1 (stereo not drawn) [Example 1-3, 2-amino-6-(2-hydroxyphenyl)-4-(3-methylpiperidin-3-yl)-nicotinonitrile hydrochloride]",500 to 2000 nM
13,"Nc1nc(-c2c(O)cccc2OCC2CC2)cc(C2CCCNC2)c1CSc1ccccc1 (stereo not drawn) [Example 21-1, 2-[6-amino-5-[(phenylsulfanyl)methyl]-4-(3-piperidinyl)-2-pyridinyl]-3-(cyclopropylmethoxy)phenol hydrochloride]",< 500 nM
14,"CCOC(=O)NCc1c(C2CCCNC2)cc(-c2c(O)cccc2OCC2CC2)nc1N (stereo not drawn) [Example 23-2, ethyl [2-amino-6-[2-(cyclopropylmethoxy)-6-hydroxyphenyl]-4-(3-piperidinyl)-3-pyridinyl]methylcarbamate hydrochloride]",< 500 nM
15,"O=C1NCc2c(C3CCNCC3)cc(-c3c(O)cccc3OCC3CC3)nc2N1 [Example 22-3, 7-[2-(cyclopropylmethoxy)-6-hydroxyphenyl]-5-(4-piperidinyl)-3,4-dihydro-1H-pyrido[2,3-d]pyrimidin-2-one hydrochloride]",< 500 nM
16,"CC(=O)NCc1c(C2CCCNC2)cc(-c2c(O)cccc2OCC2CC2)nc1N (stereo not drawn) [Example 23-1, N-{[2-amino-6-[2-(cyclopropylmethoxy)-6-hydroxyphenyl]-4-(3-piperidinyl)-3-pyridinyl]methyl}acetamide hydrochoride]",< 500 nM
17,"NC(Cc1ccccc1)c1cc(-c2ccccc2O)nc2c1COC(=O)N2 (stereo not drawn) [Example 18-4/18-5, 5-(1-Amino-2-phenyl-ethyl)-7-(2-hydroxy-phenyl)-1,4-dihydro-pyrido[2,3-d][1,3]oxazin-2-one hydrochloride]",< 500 nM
18,"O=C(O)c1cc2c(C3CCCNC3)cc(-c3c(O)cccc3OCC3CC3)nc2[nH]c1=O (stereo not drawn) [Example 30-1, 7-(2-cyclopropylmethoxy-6-hydroxy-phenyl)-2-oxo-5-piperidin-3-yl-1,2-dihydro[1,8]naphthyridine-3-carboxylic acid hydrochloride]",< 500 nM
19,"CC(=O)N1Cc2c(C3CCCNC3)cc(-c3c(O)cccc3OCC3CC3)nc2NC1=O (stereo not drawn) [Example 24-1, 3-acetyl-7-[2-(cyclopropylmethoxy)-6-hydroxyphenyl]-5-(3-piperidinyl)-3,4-dihydropyrido[2,3-d]pyrimidin-2(1H)-one hydrochloride]",< 500 nM
20,"N#Cc1ccc(-c2ccccc2O)nc1N [Example 33-1, 2-amino-6-(2-hydroxyphenyl)nicotinonitrile]",500 to 2000 nM

# Second part, the compound after the results:
row,IC50,SMILES
1,< 500 nM,"Cc1c(C2CCCNC2)cc(-c2ccccc2O)nc1N (stereo not drawn) [Example 14-1, 2-[6-amino-5-methyl-4-(3-piperidinyl)-2-pyridinyl]phenol hydrochloride]"
2,< 500 nM,"N#Cc1c(NC2CCCNC2)cc(-c2ccccc2O)nc1N (stereo not drawn) [Example 34-4, 2-amino-6-(2-hydroxyphenyl)-4-(3-piperidinylamino)nicotinonitrile hydrochloride]"
3,2000 to 10000 nM,"CCCNc1nc(-c2ccccc2O)cc(C2CCCNC2)c1C#N (stereo not drawn) [Example 4-2, 6-(2-hydroxyphenyl)-4-(3-piperidinyl)-2-(propylamino)nicotinonitrile hydrochloride]"
4,< 500 nM,"N#Cc1c(C2CCNCC2)cc(-c2c(O)cccc2OCC2CC2)nc1N [Example 2-3, hydrochloride]"
5,2000 to 10000 nM,"N#Cc1c(C2CCCNC2)cc(-c2c(N)cccc2O)nc1N (stereo not drawn) [Example 1-10, 2-amino-6-(2-amino-6-hydroxyphenyl)-4-(3-piperidinyl)nicotinonitrile hydrochloride]"
6,< 500 nM,"CC(O)c1c(C2CCCNC2)cc(-c2ccccc2O)nc1N (stereo not drawn) [Example 15-1, 2-[6-amino-5-(1-hydroxyethyl)-4-(3-piperidinyl)-2-pyridinyl]phenol hydrochloride]"
7,< 500 nM,"Nc1nc(-c2ccccc2O)cc(C2CCCNC2)c1CO (stereo not drawn) [Example 11-1, 2-[6-amino-5-(hydroxymethyl)-4-(3-piperidinyl)-2-pyridinyl]phenol hydrochloride]"
8,< 500 nM,"N#Cc1c(C2CCCNC2)cc(-c2c(O)cccc2O)nc1N (stereo not drawn) [Example 2-1, 2-amino-6-(2,6-dihydroxyphenyl)-4-(3-piperidinyl)nicotinonitrile hydrochloride]"
9,< 500 nM,"Nc1nc(-c2ncccc2O)cc(C2CCCNC2)c1CO (stereo not drawn) [Example 11-3, 6′-amino-5′-(hydroxymethyl)-4′-3-piperidinyl)-2,2′-bipyridin-3-ol hydrochloride]"
10,< 500 nM,"CC(=O)Nc1nc(-c2ccccc2O)cc(C2CCCNC2)c1C#N (stereo not drawn) [Example 6-1, N-[3-cyano-6-(2-hydroxyphenyl)-4-(3-piperidinyl)-2-pyridinyl]acetamide hydrochloride]"
11,2000 to 10000 nM,"CC(=O)Nc1cccc(O)c1-c1cc(C2CCCNC2)c(C#N)c(N)n1 (stereo not drawn) [Example 1-12, N-{2-[6-amino-5-cyano-4-(3-piperidinyl)-2-pyridinyl]-3-hydroxyphenyl}acetamide hydrochloride]"
12,500 to 2000 nM,"N#Cc1c(C2CCCNC2)cc(-c2c(O)cccc2NCc2ccccc2)nc1N (stereo not drawn) [Example 1-11, 2-amino-6-[2-(benzylamino)-6-hydroxyphenyl]-4-(3-piperidinyl)nicotinonitrile hydrochloride]"
13,< 500 nM,"N#Cc1c(C2CCCNC2)cc(-c2ccccc2O)nc1N (stereo not drawn) [Example 1-1, 2-amino-6-(2-hydroxyphenyl)-4-(3-piperidinyl)-nicotinonitrile hydrochloride]"
